Assay results reported in the CheMixHub viscosity set.
Values joined by “and” are separate entries in the source; they are usually repeats but may differ in a detail not shown here. Equal values may be shown once. ± gives the uncertainty stated by the source.

Assay: xn = mol fraction of the nth substance listed

CC(C)C(=O)O + O
Settings | viscosity
293.15 K, 101.33 kPa, x1 = 0.011 | 1.181 ± 0.012 mPa·s
293.15 K, 101.33 kPa, x1 = 0.0222 | 1.448 ± 0.014 mPa·s
293.15 K, 101.33 kPa, x1 = 0.0348 | 1.558 ± 0.016 mPa·s
293.15 K, 101.33 kPa, x1 = 0.0486 | 1.779 ± 0.018 mPa·s
299.35 K, 101.33 kPa, x1 = 0.11 | 2.904 ± 0.021 mPa·s
299.36 K, 101.33 kPa, x1 = 0.11 | 2.896 ± 0.021 mPa·s
299.37 K, 101.33 kPa, x1 = 0.11 | 2.882 ± 0.021 mPa·s
299.38 K, 101.33 kPa, x1 = 0.11 | 2.868 ± 0.021 mPa·s
299.39 K, 101.33 kPa, x1 = 0.11 | 2.846 ± 0.021 mPa·s and 2.836 ± 0.021 mPa·s
299.4 K, 101.33 kPa, x1 = 0.11 | 2.813 ± 0.021 mPa·s
299.43 K, 101.33 kPa, x1 = 0.11 | 2.767 ± 0.02 mPa·s
299.45 K, 101.33 kPa, x1 = 0.11 | 2.751 ± 0.02 mPa·s
299.48 K, 101.33 kPa, x1 = 0.11 | 2.711 ± 0.02 mPa·s
299.5 K, 101.33 kPa, x1 = 0.11 | 2.69 ± 0.02 mPa·s
299.56 K, 101.33 kPa, x1 = 0.11 | 2.645 ± 0.02 mPa·s
299.64 K, 101.33 kPa, x1 = 0.11 | 2.606 ± 0.019 mPa·s
299.72 K, 101.33 kPa, x1 = 0.11 | 2.571 ± 0.019 mPa·s
299.85 K, 101.33 kPa, x1 = 0.11 | 2.541 ± 0.019 mPa·s
299.96 K, 101.33 kPa, x1 = 0.11 | 2.506 ± 0.019 mPa·s
300.15 K, 101.33 kPa, x1 = 0.11 | 2.466 ± 0.018 mPa·s
300.4 K, 101.33 kPa, x1 = 0.11 | 2.422 ± 0.018 mPa·s
301.15 K, 101.33 kPa, x1 = 0.11 | 2.317 ± 0.017 mPa·s
302.15 K, 101 kPa, x1 = 0.0106 | 0.9416 ± 0.0059 mPa·s
302.15 K, 101 kPa, x1 = 0.0222 | 1.066 ± 0.0065 mPa·s
302.15 K, 101 kPa, x1 = 0.0348 | 1.21 ± 0.0073 mPa·s
302.15 K, 101 kPa, x1 = 0.0486 | 1.388 ± 0.0083 mPa·s
302.15 K, 101 kPa, x1 = 0.0545 | 1.469 ± 0.0087 mPa·s
302.15 K, 101 kPa, x1 = 0.0638 | 1.6 ± 0.0094 mPa·s
302.15 K, 101 kPa, x1 = 0.0737 | 1.74 ± 0.01 mPa·s
302.15 K, 101 kPa, x1 = 0.0806 | 1.837 ± 0.011 mPa·s
302.15 K, 101 kPa, x1 = 0.0915 | 1.999 ± 0.012 mPa·s
302.15 K, 101 kPa, x1 = 0.1114 | 2.213 ± 0.013 mPa·s
302.15 K, 101 kPa, x1 = 0.12 | 2.285 ± 0.013 mPa·s
302.15 K, 101 kPa, x1 = 0.129 | 2.348 ± 0.013 mPa·s
302.15 K, 101 kPa, x1 = 0.1433 | 2.423 ± 0.014 mPa·s
302.15 K, 101 kPa, x1 = 0.1698 | 2.499 ± 0.014 mPa·s
302.15 K, 101 kPa, x1 = 0.1999 | 2.568 ± 0.015 mPa·s
302.15 K, 101 kPa, x1 = 0.2347 | 2.614 ± 0.015 mPa·s
302.15 K, 101 kPa, x1 = 0.323 | 2.632 ± 0.015 mPa·s
302.15 K, 101 kPa, x1 = 0.4499 | 2.493 ± 0.014 mPa·s
302.15 K, 101 kPa, x1 = 0.4996 | 2.403 ± 0.014 mPa·s
302.15 K, 101 kPa, x1 = 0.7953 | 1.685 ± 0.0098 mPa·s
302.15 K, 101 kPa, x1 = 0.9529 | 1.27 ± 0.0076 mPa·s
302.27 K, 101.33 kPa, x1 = 0.11 | 2.211 ± 0.017 mPa·s
303.11 K, 101.33 kPa, x1 = 0.11 | 2.144 ± 0.016 mPa·s
303.15 K, 101.33 kPa, x2 = 0.352 | 1.51 ± 0.04 mPa·s
303.15 K, 101.33 kPa, x2 = 0.55 | 2.12 ± 0.056 mPa·s
303.15 K, 101.33 kPa, x2 = 0.677 | 2.43 ± 0.064 mPa·s
303.15 K, 101.33 kPa, x2 = 0.765 | 2.51 ± 0.066 mPa·s
303.15 K, 101.33 kPa, x2 = 0.83 | 2.42 ± 0.064 mPa·s
303.15 K, 101.33 kPa, x2 = 0.88 | 2 ± 0.053 mPa·s
303.15 K, 101.33 kPa, x2 = 0.919 | 1.58 ± 0.042 mPa·s
303.15 K, 101.33 kPa, x2 = 0.951 | 1.28 ± 0.034 mPa·s
303.15 K, 101.33 kPa, x2 = 0.978 | 1.02 ± 0.027 mPa·s
304.12 K, 101.33 kPa, x1 = 0.11 | 2.07 ± 0.016 mPa·s
305.07 K, 101.33 kPa, x1 = 0.11 | 2.003 ± 0.015 mPa·s
305.15 K, 101 kPa, x1 = 0.0106 | 0.8833 ± 0.0056 mPa·s
305.15 K, 101 kPa, x1 = 0.0222 | 0.9974 ± 0.0062 mPa·s
305.15 K, 101 kPa, x1 = 0.0348 | 1.127 ± 0.0069 mPa·s
305.15 K, 101 kPa, x1 = 0.0486 | 1.284 ± 0.0077 mPa·s
305.15 K, 101 kPa, x1 = 0.0545 | 1.355 ± 0.0081 mPa·s
305.15 K, 101 kPa, x1 = 0.0638 | 1.469 ± 0.0087 mPa·s
305.15 K, 101 kPa, x1 = 0.0737 | 1.59 ± 0.0094 mPa·s
305.15 K, 101 kPa, x1 = 0.0806 | 1.673 ± 0.0098 mPa·s
305.15 K, 101 kPa, x1 = 0.0915 | 1.799 ± 0.01 mPa·s
305.15 K, 101 kPa, x1 = 0.1114 | 1.993 ± 0.011 mPa·s
305.15 K, 101 kPa, x1 = 0.12 | 2.06 ± 0.012 mPa·s
305.15 K, 101 kPa, x1 = 0.129 | 2.117 ± 0.012 mPa·s
305.15 K, 101 kPa, x1 = 0.1433 | 2.18 ± 0.013 mPa·s
305.15 K, 101 kPa, x1 = 0.1698 | 2.271 ± 0.013 mPa·s
305.15 K, 101 kPa, x1 = 0.1999 | 2.339 ± 0.013 mPa·s
305.15 K, 101 kPa, x1 = 0.2347 | 2.388 ± 0.014 mPa·s
305.15 K, 101 kPa, x1 = 0.323 | 2.423 ± 0.014 mPa·s
305.15 K, 101 kPa, x1 = 0.4499 | 2.32 ± 0.013 mPa·s
305.15 K, 101 kPa, x1 = 0.4996 | 2.244 ± 0.013 mPa·s
305.15 K, 101 kPa, x1 = 0.6404 | 1.959 ± 0.011 mPa·s
305.15 K, 101 kPa, x1 = 0.7953 | 1.597 ± 0.0094 mPa·s
305.15 K, 101 kPa, x1 = 0.9529 | 1.214 ± 0.0073 mPa·s
306.72 K, 101.33 kPa, x1 = 0.11 | 1.907 ± 0.014 mPa·s
307.67 K, 101.33 kPa, x1 = 0.11 | 1.855 ± 0.014 mPa·s
308.15 K, 101 kPa, x1 = 0.0106 | 0.8203 ± 0.0052 mPa·s
308.15 K, 101 kPa, x1 = 0.0222 | 0.9263 ± 0.0058 mPa·s
308.15 K, 101 kPa, x1 = 0.0348 | 1.049 ± 0.0065 mPa·s
308.15 K, 101 kPa, x1 = 0.0486 | 1.194 ± 0.0072 mPa·s
308.15 K, 101 kPa, x1 = 0.0545 | 1.259 ± 0.0076 mPa·s
308.15 K, 101 kPa, x1 = 0.0638 | 1.361 ± 0.0082 mPa·s
308.15 K, 101 kPa, x1 = 0.0737 | 1.468 ± 0.0087 mPa·s
308.15 K, 101 kPa, x1 = 0.0806 | 1.541 ± 0.0091 mPa·s
308.15 K, 101 kPa, x1 = 0.0915 | 1.651 ± 0.0097 mPa·s
308.15 K, 101 kPa, x1 = 0.1114 | 1.827 ± 0.011 mPa·s
308.15 K, 101 kPa, x1 = 0.12 | 1.878 ± 0.011 mPa·s
308.15 K, 101 kPa, x1 = 0.129 | 1.927 ± 0.011 mPa·s
308.15 K, 101 kPa, x1 = 0.1433 | 1.99 ± 0.011 mPa·s
308.15 K, 101 kPa, x1 = 0.1698 | 2.077 ± 0.012 mPa·s
308.15 K, 101 kPa, x1 = 0.1999 | 2.144 ± 0.012 mPa·s
308.15 K, 101 kPa, x1 = 0.2347 | 2.195 ± 0.013 mPa·s
308.15 K, 101 kPa, x1 = 0.323 | 2.24 ± 0.013 mPa·s
308.15 K, 101 kPa, x1 = 0.4499 | 2.156 ± 0.012 mPa·s
308.15 K, 101 kPa, x1 = 0.4996 | 2.089 ± 0.012 mPa·s
308.15 K, 101 kPa, x1 = 0.6404 | 1.837 ± 0.011 mPa·s
308.15 K, 101 kPa, x1 = 0.7953 | 1.504 ± 0.0089 mPa·s
308.15 K, 101 kPa, x1 = 0.9529 | 1.155 ± 0.007 mPa·s
311.15 K, 101 kPa, x1 = 0.0106 | 0.765 ± 0.0049 mPa·s
311.15 K, 101 kPa, x1 = 0.0222 | 0.8626 ± 0.0054 mPa·s
313.15 K, 101.33 kPa, x1 = 0.011 | 0.767 ± 0.0077 mPa·s
313.15 K, 101.33 kPa, x1 = 0.0222 | 0.907 ± 0.0091 mPa·s
313.15 K, 101.33 kPa, x1 = 0.0348 | 0.965 ± 0.0097 mPa·s
313.15 K, 101.33 kPa, x1 = 0.0486 | 1.094 ± 0.011 mPa·s
